Reference: ChEMBL document CHEMBL1629592, “Real-time monitoring of human enterovirus (HEV)-infected cells and anti-HEV 3C protease potency by fluorescence resonance energy transfer” (Antimicrob Agents Chemother, 2009)

Legend:
Format in all cases: functional, organism-based
Enterovirus [1] = experiment: Antiviral activity against Human enterovirus CVA16 infected in Vero cells after 4 to 7 days by plaque reduction assay
Enterovirus [2] = experiment: Antiviral activity against Human enterovirus CVB1 infected in Vero cells after 4 to 7 days by plaque reduction assay
Enterovirus [3] = experiment: Antiviral activity against Human enterovirus CVB2 infected in Vero cells after 4 to 7 days by plaque reduction assay
Enterovirus [4] = experiment: Antiviral activity against Human enterovirus CVB4 infected in Vero cells after 4 to 7 days by plaque reduction assay
Enterovirus [5] = experiment: Antiviral activity against Human enterovirus Echo9 infected in Vero cells after 4 to 7 days by plaque reduction assay
Enterovirus [6] = experiment: Antiviral activity against Human enterovirus EV71 infected in human HeLa cells after 2 to 4 days by formazan dye reduction assay
Enterovirus [7] = experiment: Antiviral activity against Human enterovirus CVA16 infected in human HeLa cells after 2 to 4 days by formazan dye reduction assay
Enterovirus [8] = experiment: Antiviral activity against Human enterovirus CVB1 infected in human HeLa cells after 2 to 4 days by formazan dye reduction assay
Enterovirus [9] = experiment: Antiviral activity against Human enterovirus CVB2 infected in human HeLa cells after 2 to 4 days by formazan dye reduction assay
Enterovirus [10] = experiment: Antiviral activity against Human enterovirus CVB4 infected in human HeLa cells after 2 to 4 days by formazan dye reduction assay
Enterovirus [11] = experiment: Antiviral activity against Human enterovirus Echo9 infected in human HeLa cells after 2 to 4 days by formazan dye reduction assay
Enterovirus [12] = experiment: Antiviral activity against Human enterovirus EV71 infected in Vero cells after 4 to 7 days by plaque reduction assay
Enterovirus [13] = experiment: Antiviral activity against Human enterovirus EV71 infected in human HeLa-G3CwtR cells after 36 to 48 hrs by FRET assay
Enterovirus [14] = experiment: Antiviral activity against Human enterovirus CVA16 infected in human HeLa-G3CwtR cells after 36 to 48 hrs by FRET assay
Enterovirus [15] = experiment: Antiviral activity against Human enterovirus CVB1 infected in human HeLa-G3CwtR cells after 36 to 48 hrs by FRET assay
Enterovirus [16] = experiment: Antiviral activity against Human enterovirus CVB2 infected in human HeLa-G3CwtR cells after 36 to 48 hrs by FRET assay
Enterovirus [17] = experiment: Antiviral activity against Human enterovirus CVB4 infected in human HeLa-G3CwtR cells after 36 to 48 hrs by FRET assay
Enterovirus [18] = experiment: Antiviral activity against Human enterovirus Echo9 infected in human HeLa-G3CwtR cells after 36 to 48 hrs by FRET assay

- EC50 (Enterovirus [1]): 419 nM
- EC50 (Enterovirus [2]): 1720 nM
- EC50 (Enterovirus [3]): 982 nM
- EC50 (Enterovirus [4]): 843 nM
- EC50 (Enterovirus [5]): 481 nM
- EC50 (Enterovirus [6]): 561 nM
- EC50 (Enterovirus [7]): 270 nM
- EC50 (Enterovirus [8]): 1250 nM
- EC50 (Enterovirus [9]): 783 nM
- EC50 (Enterovirus [10]): 372 nM
- EC50 (Enterovirus [11]): 360 nM
- EC50 (Enterovirus [12]): 791 nM
- EC50 (Enterovirus [13]): 781 nM
- EC50 (Enterovirus [14]): 331 nM
- EC50 (Enterovirus [15]): 1640 nM
- EC50 (Enterovirus [16]): 857 nM
- EC50 (Enterovirus [17]): 877 nM
- EC50 (Enterovirus [18]): 434 nM
Compound: CCOC(=O)/C=C/[C@H](C[C@@H]1CCNC1=O)NC(=O)[C@@H](CC(=O)[C@@H](NC(=O)c1cc(C)on1)C(C)C)Cc1ccc(F)cc1 [RUPINTRIVIR]
